Key:
human CFU-g = assay: CFU-g assay (colony assay), human; format: cell-based; settings: potency as G-CSF mimetic
Experimental: (§1) In determining potency as G-CSF mimetics, the following assay is employed: CFU-g Assay
(§2) The compounds of present invention are tested for potency as G-CSF mimetics in a CFU-g assay, an example of which is described in King AG, Talmadge J., Badger AM, Pelus LM. Regulation of colony stimulating activity production from bone marrow stromal cells by the hematoregulatory peptide, HP-5. Exp. Hematol. 20:223-228, 1992.

mouse CFU-g = assay: CFU-g assay (colony assay), mouse; format: cell-based; settings: potency as G-CSF mimetic
Experimental: as §1, §2

Structure (SMILES): O=c1n2c(nc3n1[C@]1(c4ccccn4)n4c(nc5nc6ccccc6n5c4=O)N[C@]1(c1ccccn1)N3)nc1ccccc12 [Compound A, 7a, 17a-bis(2-pyridyl)-16,19-dioxo-5,7a, 10,16,17a, 19-hexahydro-benzimidazo[2′,1′:4,5][1,3,5]triazino[1,2-a]benzimidazo[2″,1″:4′,5′][1,3,5]triazino[1′,2′:1,2]imidazo[4,5-d]imidazole]
- human CFU-g, colony assay/% Gmax @ 3 uM (human CFU-g): 41 % Gmax
- mouse CFU-g, colony assay/% Gmax @ 3 uM (mouse CFU-g): 43 % Gmax

— patent US6346531B1, “G-CSF mimetics” (SmithKline Beecham Corporation, priority 1998, dated 2002)
